Data from PubChem BioAssay AID1919007 (Molecular Pharmacology Branch, DTP, NCI, 2023).

System: A498 complex spheroids with HUVEC/MSC, growth
Experiment: Anticancer human tumor A498 cell line growth inhibition [AhR];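 further: seven day exposure starting three days after spheroid seeding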;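 on viability, T/C: luminescence signal used as a surrogate for viable cells; luminescence viability scaled so 100% equals DMSO vehicle wells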
Conditions: for IC50: curve of first compound; for viability, T/C: stronger effect = lower value
How it was run: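 Spheroids combined tumor cells with HUVEC endothelial cells and human MSCs as stroma. AhR antagonists were paired with standard or investigational drugs, each dosed in half-log steps down from near clinical Cmax, or from 10 microM where Cmax was unknown.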

[1] = second compound 0.1 µM, first compound 0.0316 µM
[2] = second compound 0.1 µM, first compound 0.1 µM
[3] = second compound 0.316 µM, first compound 0.0316 µM
[4] = second compound 0.316 µM, first compound 0.1 µM
[5] = second compound 1 µM, first compound 0.0316 µM
[6] = second compound 1 µM, first compound 0.1 µM
[7] = second compound 3.16 µM, first compound 0.0316 µM
[8] = second compound 3.16 µM, first compound 0.1 µM
[9] = second compound 10 µM, first compound 0.0316 µM
[10] = second compound 10 µM, first compound 0.1 µM
[11] = second compound 0.1 µM, first compound 0.316 µM
[12] = second compound 0.1 µM, first compound 1 µM
[13] = second compound 0.1 µM, first compound 3.16 µM
[14] = second compound 0.1 µM, first compound 10 µM
[15] = second compound 0.316 µM, first compound 0.316 µM
[16] = second compound 0.316 µM, first compound 1 µM
[17] = second compound 0.316 µM, first compound 3.16 µM
[18] = second compound 0.316 µM, first compound 10 µM
[19] = second compound 1 µM, first compound 0.316 µM
[20] = second compound 1 µM, first compound 1 µM
[21] = second compound 1 µM, first compound 3.16 µM
[22] = second compound 1 µM, first compound 10 µM
[23] = second compound 3.16 µM, first compound 0.316 µM
[24] = second compound 3.16 µM, first compound 1 µM
[25] = second compound 3.16 µM, first compound 3.16 µM
[26] = second compound 3.16 µM, first compound 10 µM
[27] = second compound 10 µM, first compound 0.316 µM
[28] = second compound 10 µM, first compound 1 µM
[29] = second compound 10 µM, first compound 3.16 µM
[30] = second compound 10 µM, first compound 10 µM

SMILES	IC50 (second compound 0.1 µM)	IC50 (second compound 0.316 µM)	IC50 (second compound 1 µM)	IC50 (second compound 3.16 µM)	IC50 (second compound 10 µM)	viability, T/C [1]	viability, T/C [2]	viability, T/C [3]	viability, T/C [4]	viability, T/C [5]	viability, T/C [6]	viability, T/C [7]	viability, T/C [8]	viability, T/C [9]	viability, T/C [10]	viability, T/C [11]	viability, T/C [12]	viability, T/C [13]	viability, T/C [14]	viability, T/C [15]	also measured
CC[C@@]1(O)C(=O)OCc2c1cc1n(c2=O)Cc2cc3c(CN(C)C)c(O)ccc3nc2-1 + Cc1ccccc1N=Nc1ccc(NC(=O)c2ccnn2C)c(C)c1	> 0.1 µM	> 0.1 µM	> 0.1 µM	> 0.1 µM	> 0.1 µM	75.7%	74.7%	74.3%	74.2%	71.5%	66.5%	69.8%	64.2%	78%	63.4%						viability, T/C (second compound 0.1 µM, first compound 0.000316 µM): 88.9%; viability, T/C (second compound 0.1 µM, first compound 0.001 µM): 93.4%; viability, T/C (second compound 0.1 µM, first compound 0.00316 µM): 87.9%; viability, T/C (second compound 0.1 µM, first compound 0.01 µM): 80.7%; viability, T/C (second compound 0.316 µM, first compound 0.000316 µM): 90.7%; viability, T/C (second compound 0.316 µM, first compound 0.001 µM): 99.7%; viability, T/C (second compound 0.316 µM, first compound 0.00316 µM): 92.8%; viability, T/C (second compound 0.316 µM, first compound 0.01 µM): 81%; viability, T/C (second compound 1 µM, first compound 0.000316 µM): 87.5%; viability, T/C (second compound 1 µM, first compound 0.001 µM): 92.7%; viability, T/C (second compound 1 µM, first compound 0.00316 µM): 86.9%; viability, T/C (second compound 1 µM, first compound 0.01 µM): 68%; viability, T/C (second compound 3.16 µM, first compound 0.000316 µM): 87.3%; viability, T/C (second compound 3.16 µM, first compound 0.001 µM): 90.4%; viability, T/C (second compound 3.16 µM, first compound 0.00316 µM): 87.7%; viability, T/C (second compound 3.16 µM, first compound 0.01 µM): 74.7%; viability, T/C (second compound 10 µM, first compound 0.000316 µM): 84%; viability, T/C (second compound 10 µM, first compound 0.001 µM): 84.7%; viability, T/C (second compound 10 µM, first compound 0.00316 µM): 89.1%; viability, T/C (second compound 10 µM, first compound 0.01 µM): 76.5%
COc1cc(C2c3cc4c(cc3C(OC3OC5COC(C)OC5C(O)C3O)C3COC(=O)C23)OCO4)cc(OC)c1O (stereo not given) + Cc1ccccc1N=Nc1ccc(NC(=O)c2ccnn2C)c(C)c1	> 10 µM	> 10 µM	> 10 µM	7.6 µM	8.76 µM	73.9%	68%	85%	76.9%	75.3%	71.1%	72.9%	68.7%	74.8%	73.1%	63.5%	64.6%	61.3%	49.2%	77.4%	viability, T/C [16]: 66.7%; viability, T/C [17]: 59.5%; viability, T/C [18]: 53.2%; viability, T/C [19]: 67.5%; viability, T/C [20]: 63.4%; viability, T/C [21]: 52.9%; viability, T/C [22]: 52.7%; viability, T/C [23]: 72.6%; viability, T/C [24]: 62.8%; viability, T/C [25]: 55.4%; viability, T/C [26]: 48.6%; viability, T/C [27]: 77.2%; viability, T/C [28]: 66.7%; viability, T/C [29]: 61.5%; viability, T/C [30]: 48.5%
Nc1ccn(C2OC(CO)C(O)C2(F)F)c(=O)n1 (stereo not given) + Cc1ccccc1N=Nc1ccc(NC(=O)c2ccnn2C)c(C)c1	< 0.0316 µM	< 0.0316 µM	< 0.0316 µM	< 0.0316 µM	< 0.0316 µM	33.3%	36%	30.9%	33.1%	35.5%	33.2%	37%	37.5%	37.4%	40.8%	39.9%	47.9%	46.9%	43.5%	43.9%	viability, T/C [16]: 44.8%; viability, T/C [17]: 50.5%; viability, T/C [18]: 38%; viability, T/C [19]: 44%; viability, T/C [20]: 50.7%; viability, T/C [21]: 42.7%; viability, T/C [22]: 38.2%; viability, T/C [23]: 46.5%; viability, T/C [24]: 41.8%; viability, T/C [25]: 44.6%; viability, T/C [26]: 38.8%; viability, T/C [27]: 46.6%; viability, T/C [28]: 45.7%; viability, T/C [29]: 44.7%; viability, T/C [30]: 40.9%
